Patent publication US12102637B2, “Pharmaceutical formulations for treating endometriosis, uterine fibroids, polycystic ovary syndrome or adenomyosis” (AbbVie Inc., priority 2017, dated 2024)

How the values were obtained:
[1] = biological target: T1, organic anion transporting polypeptide (OATP)1B1 (Homo sapiens, UniProt Q9Y6L6); experiment: Elagolix as substrate of OATP1B1
T1 sequence (Q9Y6L6 1-691): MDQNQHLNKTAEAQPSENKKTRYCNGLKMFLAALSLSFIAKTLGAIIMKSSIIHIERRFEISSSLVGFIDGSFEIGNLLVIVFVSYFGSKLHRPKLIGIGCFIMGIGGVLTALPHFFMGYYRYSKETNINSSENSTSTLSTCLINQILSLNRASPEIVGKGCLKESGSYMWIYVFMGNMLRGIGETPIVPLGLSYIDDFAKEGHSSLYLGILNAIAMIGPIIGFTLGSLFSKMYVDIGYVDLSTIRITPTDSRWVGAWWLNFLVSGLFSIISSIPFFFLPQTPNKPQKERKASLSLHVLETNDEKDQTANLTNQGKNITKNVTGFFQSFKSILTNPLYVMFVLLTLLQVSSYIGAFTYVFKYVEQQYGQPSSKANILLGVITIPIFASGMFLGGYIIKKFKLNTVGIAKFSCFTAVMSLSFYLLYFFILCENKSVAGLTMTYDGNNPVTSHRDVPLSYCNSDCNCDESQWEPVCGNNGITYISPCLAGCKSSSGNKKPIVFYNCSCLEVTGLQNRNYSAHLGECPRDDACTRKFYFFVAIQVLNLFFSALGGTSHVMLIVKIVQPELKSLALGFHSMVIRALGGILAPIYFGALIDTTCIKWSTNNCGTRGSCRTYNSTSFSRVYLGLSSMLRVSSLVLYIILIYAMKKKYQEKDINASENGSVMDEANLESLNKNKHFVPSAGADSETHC
Excerpt: (§1) Elagolix is a substrate of CYP3A, P-gp, and organic anion transporting polypeptide (OATP)1B1. Clinically meaningful interactions are not expected when elagolix is co-administered with drugs that inhibit CYP3A or P-gp.

[2] = system: estradiol; experiment: Estradiol suppression in the Phase 3 studies in women with endometriosis; format: in vivo, human; conditions: 150 mg QD, partial suppression
[3] = biological target: efflux transporter P-glycoprotein (P-gp) (Homo sapiens, UniProt P08183); experiment: Elagolix as inhibitor and substrate of P-gp
Method: Elagolix is an inhibitor of efflux transporter P-glycoprotein (P-gp) at 200 mg BID or higher, such as 300 mg BID or 400 mg QD or 600 mg QD. Co-administration with ELAGOLIX 200 mg BID may increase plasma concentration of drugs that are substrates of P-gp.
as §1

[4] = system: mice; experiment: 2-year carcinogenicity study in mice; format: in vivo; conditions: mouse, any dose
[5] = Mutagenicity studies, in vitro and in vivo test systems
Excerpt: Mutagenicity studies have been performed with elagolix using in vitro and in vivo test systems.

[6] = Compound A solubility experiment in water at 37° C. (gel formation); format: physicochemical
Method: The dotted line in FIG. 2 is the theoretical concentration based on the weights of the solids added and the volume of water. […] Deviation of the concentrations from the theoretical line is due to the volume expansion upon dissolution of large amount of solutes. Beyond that, the concentrations deviate from the theoretical line, but the solution is still clear and no visible gelling was observed. When more than 500 mg of Compound A solid was added, visible gelling was observed, therefore, concentrations were not determined.

[7] = system: women treated in Studies EM-I and EM-II; experiment: Adverse reactions in Studies EM-I and EM-II; format: in vivo, human; conditions: for Percentage of Patients with Amenorrhoea / Percentage of Patients with Anxiety / Percentage of Patients with Arthralgia / Percentage of Patients with Headache / Percentage of Patients with Hot Flush / Percentage of Patients with Insomnia / Percentage of Patients with Nasopharyngitis / Percentage of Patients with Nausea / Percentage of Patients with Sinusitis / Percentage of Patients with Upper Respiratory Tract Infection: Studies EM-I and EM-II; for discontinuations due to hot flush / discontinuations due to nausea / patients who discontinued therapy due to adverse reactions: EM-I and EM-II
Excerpt: The population age range was 18-49 years old. Women who completed six months of treatment and met eligibility criteria continued treatment in two blinded six-month extension studies, for a total treatment duration of up to 12 months.

[8] = system: premenopausal women with HMB, uterine fibroids and adenomyosis; experiment: Phase 2b trial in women with HMB and uterine fibroids, subgroup with non-dominant adenomyosis; format: in vivo, human
Method: Patients and Methods: […] Elagolix studied in this clinical trial comprised the sodium salt of Compound A. All subjects were evaluated with ultrasound and a subset volunteered to also be evaluated by MRI. […] Efficacy and safety were evaluated post hoc in a subgroup of women who had confirmed non-dominant adenomyosis (ultrasound/MRI) at baseline. Menstrual blood loss (MBL) was quantified from sanitary products (alkaline hematin). […] Adverse events (AEs) were recorded.

[9] = system: luteinizing hormone (LH) and follicle-stimulating hormone (FSH); experiment: Suppression of LH and FSH levels; format: in vivo, human; conditions: begins within hours of administration, reversible upon discontinuation
Excerpt: (I) Elagolix is an orally administered, short-acting, selective, non-peptide small molecule GnRH receptor antagonist that blocks endogenous GnRH signaling by binding competitively to GnRH receptors in the pituitary gland. […] LH and FSH suppression begins within hours of administration and is readily reversible upon discontinuation of elagolix.

Chain of efflux transporter P-glycoprotein (P-gp) (P08183 whole entry): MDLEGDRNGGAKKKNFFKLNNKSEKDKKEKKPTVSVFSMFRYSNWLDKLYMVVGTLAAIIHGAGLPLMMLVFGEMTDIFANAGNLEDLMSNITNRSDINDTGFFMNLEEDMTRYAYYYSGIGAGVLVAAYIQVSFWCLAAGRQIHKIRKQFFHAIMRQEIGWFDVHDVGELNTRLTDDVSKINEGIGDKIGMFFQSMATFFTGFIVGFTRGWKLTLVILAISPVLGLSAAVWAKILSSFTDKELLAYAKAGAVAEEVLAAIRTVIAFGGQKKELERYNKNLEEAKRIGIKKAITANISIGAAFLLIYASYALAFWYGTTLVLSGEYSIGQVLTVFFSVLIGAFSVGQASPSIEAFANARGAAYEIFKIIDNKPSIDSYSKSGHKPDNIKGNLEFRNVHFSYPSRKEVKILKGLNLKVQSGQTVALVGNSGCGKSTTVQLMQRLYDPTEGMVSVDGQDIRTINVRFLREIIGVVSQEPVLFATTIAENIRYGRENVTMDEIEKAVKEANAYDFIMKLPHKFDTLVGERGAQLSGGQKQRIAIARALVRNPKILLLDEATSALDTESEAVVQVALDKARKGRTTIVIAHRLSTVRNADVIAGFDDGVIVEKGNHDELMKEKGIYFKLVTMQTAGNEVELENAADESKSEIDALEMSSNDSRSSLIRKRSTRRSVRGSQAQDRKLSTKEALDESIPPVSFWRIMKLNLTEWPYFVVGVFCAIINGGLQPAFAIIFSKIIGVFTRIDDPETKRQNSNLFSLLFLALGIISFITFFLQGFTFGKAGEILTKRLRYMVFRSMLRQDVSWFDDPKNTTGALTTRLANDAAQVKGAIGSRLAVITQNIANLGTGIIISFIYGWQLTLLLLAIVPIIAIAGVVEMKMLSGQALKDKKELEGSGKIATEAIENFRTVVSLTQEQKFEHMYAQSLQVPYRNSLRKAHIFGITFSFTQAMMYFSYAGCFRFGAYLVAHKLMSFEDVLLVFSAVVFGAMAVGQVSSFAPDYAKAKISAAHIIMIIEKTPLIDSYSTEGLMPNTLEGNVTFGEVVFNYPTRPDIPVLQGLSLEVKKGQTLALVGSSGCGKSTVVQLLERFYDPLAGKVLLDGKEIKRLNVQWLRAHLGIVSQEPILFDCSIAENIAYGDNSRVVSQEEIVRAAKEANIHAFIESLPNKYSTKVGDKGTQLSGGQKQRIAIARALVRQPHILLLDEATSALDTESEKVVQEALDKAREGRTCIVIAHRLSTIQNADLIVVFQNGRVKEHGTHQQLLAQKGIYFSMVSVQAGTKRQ

COc1cccc(-c2c(C)n(Cc3c(F)cccc3C(F)(F)F)c(=O)n(C[C@H](NCCCC(=O)O)c3ccccc3)c2=O)c1F [Compound A, 4-((R)-2-[5-(2-fluoro-3-methoxy-phenyl)-3-(2-fluoro-6-trifluoromethyl-benzyl)-4-methyl-2,6-dioxo-3,6-dihydro-2H-pyrimidin-1-yl]-1-phenyl-ethylamino)-butyric acid]
substrate of organic anion transporting polypeptide (OATP)1B1 [1]: substrate | suppression of estradiol to [2]: approximately 50 pg/mL | substrate of P-gp [3]: substrate | inhibition of efflux transporter P-glycoprotein (P-gp) ([3]; at 200 mg BID or higher): inhibitor | tumors, 2-year carcinogenicity study [4]: no increase in tumors | mutagenic or clastogenic potential [5]: no evidence of a mutagenic or clastogenic potential | Final pH ([6]; 12.2 mg added to 1.5 mL water): 9.66 | Measured Concentration ([6]; 12.2 mg added to 1.5 mL water): 7.45 mg/mL | Observation ([6]; 12.2 mg added to 1.5 mL water): Clear solution | Final pH ([6]; 28.7 mg added to 1.5 mL water): 9.96 | Measured Concentration ([6]; 28.7 mg added to 1.5 mL water): 17.3 mg/mL | Observation ([6]; 28.7 mg added to 1.5 mL water): Clear solution | Final pH ([6]; 49.8 mg added to 1.5 mL water): 10.10 | Measured Concentration ([6]; 49.8 mg added to 1.5 mL water): 28.0 mg/mL | Observation ([6]; 49.8 mg added to 1.5 mL water): Clear solution | Final pH ([6]; 100.4 mg added to 1.5 mL water): 10.16 | Measured Concentration ([6]; 100.4 mg added to 1.5 mL water): 60.8 mg/mL | Observation ([6]; 100.4 mg added to 1.5 mL water): Clear solution | Final pH ([6]; 202.5 mg added to 1.5 mL water): 10.18 | Measured Concentration ([6]; 202.5 mg added to 1.5 mL water): 111 mg/mL | Observation ([6]; 202.5 mg added to 1.5 mL water): Clear solution | Final pH ([6]; 295.6 mg added to 1.5 mL water): 10.20 | Measured Concentration ([6]; 295.6 mg added to 1.5 mL water): 149 mg/mL | Observation ([6]; 295.6 mg added to 1.5 mL water): Clear solution | Final pH ([6]; 503.2 mg added to 1.5 mL water): 10.17 | Measured Concentration ([6]; 503.2 mg added to 1.5 mL water): 170 mg/mL | Observation ([6]; 503.2 mg added to 1.5 mL water): Clear solution | Observation ([6]; 700.9 mg added to 1.5 mL water): Gel formation | Observation ([6]; 990.0 mg added to 1.5 mL water): Gel formation | Percentage of Patients with Amenorrhoea ([7]; 150 mg QD, N = 475): 4% | Percentage of Patients with Anxiety ([7]; 150 mg QD, N = 475): 3% | Percentage of Patients with Arthralgia ([7]; 150 mg QD, N = 475): 3% | Percentage of Patients with Headache ([7]; 150 mg QD, N = 475): 17% | Percentage of Patients with Hot Flush ([7]; 150 mg QD, N = 475): 23% | Percentage of Patients with Insomnia ([7]; 150 mg QD, N = 475): 6% | Percentage of Patients with Nasopharyngitis ([7]; 150 mg QD, N = 475): 6% | Percentage of Patients with Nausea ([7]; 150 mg QD, N = 475): 11% | Percentage of Patients with Sinusitis ([7]; 150 mg QD, N = 475): 5% | Percentage of Patients with Upper Respiratory Tract Infection ([7]; 150 mg QD, N = 475): 6% | Percentage of Patients with Amenorrhoea ([7]; 200 mg BID, N = 477): 7% | Percentage of Patients with Anxiety ([7]; 200 mg BID, N = 477): 5% | Percentage of Patients with Arthralgia ([7]; 200 mg BID, N = 477): 5% | Percentage of Patients with Headache ([7]; 200 mg BID, N = 477): 20% | Percentage of Patients with Hot Flush ([7]; 200 mg BID, N = 477): 45% | Percentage of Patients with Insomnia ([7]; 200 mg BID, N = 477): 9% | Percentage of Patients with Nasopharyngitis ([7]; 200 mg BID, N = 477): 6% | Percentage of Patients with Nausea ([7]; 200 mg BID, N = 477): 16% | Percentage of Patients with Sinusitis ([7]; 200 mg BID, N = 477): 6% | Percentage of Patients with Upper Respiratory Tract Infection ([7]; 200 mg BID, N = 477): 4% | discontinuations due to hot flush ([7]; 150 mg QD): 0.8% | discontinuations due to nausea ([7]; 150 mg QD): 0.8% | patients who discontinued therapy due to adverse reactions ([7]; 150 mg QD): 5.5% | discontinuations due to hot flush ([7]; 200 mg BID): 2.5% | discontinuations due to nausea ([7]; 200 mg BID): 1.5% | patients who discontinued therapy due to adverse reactions ([7]; 200 mg BID): 9.6% | Events of hot flushes ([7]; majority assessed as mild to moderate): dose-dependent | proportion of women with ≥50% reduction from baseline in HMB and <80 mL MBL in the last 28 days of treatment ([8]; Cohort 1, elagolix 300 mg BID with 0.5 mg E2/0.1 mg NETA (n=12)): 83% | proportion of women with ≥50% reduction from baseline in HMB and <80 mL MBL in the last 28 days of treatment ([8]; Cohort 1, elagolix 300 mg BID with 1.0 mg E2/0.5 mg NETA (n=5)): 100% | proportion of women with ≥50% reduction from baseline in HMB and <80 mL MBL in the last 28 days of treatment ([8]; Cohort 2, elagolix 600 mg QD with 0.5 mg E2/0.1 mg NETA (n=14)): 93% | proportion of women with ≥50% reduction from baseline in HMB and <80 mL MBL in the last 28 days of treatment ([8]; Cohort 2, elagolix 600 mg QD with 1.0 mg E2/0.5 mg NETA (n=9)): 89% | At least 1 AE, related or unrelated to study drug ([8]; elagolix-treated groups (n=22) in Cohort 1): 77% | At least 1 AE, related or unrelated to study drug ([8]; elagolix-treated groups (n=38) in Cohort 2): 67% | LH and FSH levels [9]: dose-dependent suppression
